Data taken from PMC8733726, “Dioctanoyl Ultrashort Tetrabasic β-Peptides Sensitize Multidrug-Resistant Gram-Negative Bacteria to Novobiocin and Rifampicin” (Frontiers in Microbiology, 2021).
In brackets after ≈: the same amount, converted by molar mass. Like-named read-outs stand apart in the source and are kept apart here.

How the values were obtained:
[1] = test system: wild-type A. baumannii ATCC 17978; test: Checkerboard assay; format: cell-based, Acinetobacter baumannii; conditions: ATCC 17978
How it was run: (§1)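 Checkerboard in MHB with 5 × 10^5 CFU/mL inoculum, antibiotic and adjuvant each serially 2-fold diluted on crossed axes. Growth read as turbidity at 590 nm; FICI is the sum of each agent's MIC in combination divided by its MIC alone.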

[2] = test system: MDR clinical isolates of P. aeruginosa; test: Checkerboard assay, MDR clinical isolates; format: cell-based, Pseudomonas aeruginosa; conditions: antibiotic alone
Protocol: (§2) The adjuvant activities of dUSTBβPs were evaluated using checkerboard assay as previously described ([Berry et al., 2019]). Overnight-grown bacterial culture diluted in saline to 0.5 McFarland turbidity was successively diluted 1:50 in MHB to achieve a final concentration of 5 × 10^5 CFU/mL for inoculation. The antibiotic and adjuvant were serially diluted 2-fold along the x-axis and y-axis, respectively, resulting in varying concentrations of both agents in each well. Subsequently, the 96-well plate was incubated with equal volumes of bacterial inoculum at 37°C for 18 h. Confirmation of turbidity was done using an EMax Plus microplate reader (Molecular Devices, United States) at a wavelength of 590 nm. Wells comprising MHB alone or in the presence of bacterial cells were used as negative or positive controls, respectively. Fractional inhibitory concentration index (FICI) is determined by adding the FICs of both antibiotic and adjuvant. The FIC of the antibiotic is calculated by dividing the MIC of the antibiotic in the presence of the adjuvant by the MIC of the antibiotic alone. Similarly, the FIC of the adjuvant is calculated by dividing the MIC of the adjuvant in the presence of the antibiotic by the MIC of the adjuvant alone. FICI ≤ 0.5, 0.5 < x ≤ 4, and >4 were deemed synergistic, additive, and antagonistic, respectively ([Meletiadis et al., 2010]).

[3] = test system: MDR E. cloacae; test: Checkerboard assay, MDR clinical isolates; format: cell-based, Enterobacter cloacae; conditions: antibiotic alone
Protocol: as §2

[4] = in vivo; cited from earlier work
[5] = test system: wild-type A. baumannii ATCC 17978; test: Time-kill assay; format: cell-based, Acinetobacter baumannii; conditions: 32 μg/mL novobiocin or 0.5 μg/mL rifampicin alone
Protocol: (§3) Overnight-grown bacterial culture diluted in PBS to 0.5 McFarland turbidity was successively diluted 1:50 in lysogeny broth (LB). Cell cultures in the presence of dUSTBβP 3, novobiocin, or rifampicin, or combinations of adjuvant and antibiotic were incubated at 37°C. At designated intervals, 100 μL aliquots acquired from each culture tube were serially diluted in PBS and plated on LB agar plates.

[6] = test system: MDR A. baumannii 110193; test: Time-kill assay; format: cell-based, Acinetobacter baumannii; conditions: 32 μg/mL novobiocin or 0.5 μg/mL rifampicin alone
Protocol: as §3

[7] = test system: MDR clinical isolates of A. baumannii; format: cell-based, Acinetobacter baumannii; conditions: antibiotic alone
How it was run: (§4)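 Checkerboard: antibiotic and adjuvant each 2-fold serially diluted against each other, inoculum 5 × 10^5 CFU/mL in MHB, 18 h at 37°C, growth by OD590. FICI = sum of MIC-in-combination/MIC-alone ratios for both agents; ≤0.5 synergy, >0.5–4 additive, >4 antagonism.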

[8] = test system: MDR E. coli; format: cell-based, Escherichia coli; conditions: 94393; antibiotic alone
Protocol: as §2

[9] = test system: MDR K. pneumoniae; format: cell-based, Klebsiella pneumoniae; conditions: antibiotic alone
Protocol: as §2

[10] = test system: wild-type E. coli ATCC 25922; test: microbe, parasite or virus in culture; format: cell-based, Escherichia coli; conditions: ATCC 25922
How it was run: as §4

[11] = test system: wild-type P. aeruginosa PAO1; test: microbe, parasite or virus in culture; format: cell-based, Pseudomonas aeruginosa; conditions: PAO1
How it was run: as §1

[12] = antibiotic with dUSTBβP 3 at 8 μg/mL

CO[C@@H]1[C@@H](OC(N)=O)[C@@H](O)[C@H](Oc2ccc3c(O)c(NC(=O)c4ccc(O)c(CC=C(C)C)c4)c(=O)oc3c2C)OC1(C)C [Novobiocin]
MICantibiotic ([1]; antibiotic alone): 16 µg/mL | MICcombo [1, 12]: 0.25 µg/mL | MIC ([1]; Acinetobacter baumannii, ATCC17978, 18 h, antibiotic alone (Supplementary Table 7), read-out: MICantibiotic): 16 µg/mL | MICantibiotic ([2]; PA259-96196): 1024 µg/mL | MICantibiotic ([2]; PA259-96196, listed as novobiocin): 1,024 μg/mL | MICantibiotic ([2]; PA262-101856): 1024 µg/mL | MICantibiotic ([2]; PA262-101856, listed as novobiocin): 1,024 μg/mL | MICantibiotic ([2]; PA264-104354): 1024 µg/mL | MICantibiotic ([2]; PA264-104354, listed as novobiocin): 1,024 μg/mL | MICantibiotic ([2]; PA91433): 1024 µg/mL | MICantibiotic ([2]; PA91433, listed as novobiocin): 1,024 μg/mL | MICantibiotic ([2]; PA114228): 1024 µg/mL | MICantibiotic ([2]; PA114228, listed as novobiocin): 1,024 μg/mL | MICantibiotic [3]; 117029: 512 µg/mL | MICantibiotic [3]; 118564: 256 µg/mL | MICantibiotic [3]; 121187: 16 µg/mL | Steady-state serum concentration [4]: 5 µg/mL | Time-kill outcome [5]: Bacteriostatic | Time-kill outcome [6]: Bacteriostatic | MICantibiotic [7]; 92247: 4 µg/mL | MICantibiotic [7]; 110193: 128 µg/mL | MICantibiotic ([7]; AB027): 8 µg/mL | MICantibiotic ([7]; AB031): 4 µg/mL | MICantibiotic ([7]; LAC-4): > 0.5 µg/mL | MICantibiotic ([7]; LAC-4, listed as novobiocin): 1 µg/mL | MICantibiotic [8]: 64 µg/mL | MICantibiotic [9]; 113250: 128 µg/mL | MICantibiotic [9]; 113254: 256 µg/mL | MICantibiotic [9]; 116381: 256 µg/mL | MICantibiotic ([10]; antibiotic alone): 64 µg/mL | MICcombo [10, 12]: 0.125 µg/mL | MIC ([10]; Escherichia coli, ATCC25922, 18 h, antibiotic alone (Supplementary Table 7), read-out: MICantibiotic): 64 µg/mL | MICantibiotic ([11]; antibiotic alone): 1,024 μg/mL | MICcombo [11, 12]: 32 µg/mL | MIC ([11]; Pseudomonas aeruginosa, 18 h, antibiotic alone (Supplementary Table 7), read-out: MICantibiotic): 1020 µg/mL (≈ 1670 µM)
